Data reported in patent US8329643B2, “PIMAP39 modulates LPS-induced inflammatory response” (Trustees of Boston University, priority 2008, dated 2012).
Entries after “also recorded” stand apart in the source; their conditions may differ. No end group written: not given here.

Legend:
[1] = test system: LPS-induced endotoxic shock; assay: Endotoxic shock assay: survival of mice after lethal dose of LPS + D-Gal; format: in vivo, mouse; conditions: lethal dose LPS + control peptide
Description: (§1) (A) Weight-matched wild-type mice (n=15) were injected intraperitoneal (i.p.) with a lethal dose of LPS (1 mg D-Gal+12.5 ng LPS per gram body weight) followed immediately by tail vein injection of DMSO (black line), 40 µg/g SCpep as control (green line) or […] PIMAP39 (red line). The treated mice were monitored for their behavior and mortality every hour. The survival time of each treated mouse was graphed. […] (B) Blood was collected every 2 hours post injection for a total duration of 6 hours. Mice were warmed under heating lamps to promote blood flow and a small incision was made on the tail. About 10-50 μl of blood was collected per animal at each time point (2, 4 or 6 hours). […] Pooled plasma samples from the mice within each group were measured in triplets by ELISA (Abraxis) to see the effects of PIMAP39 on TNF-α production. ELISA immunoreactivity was quantitated using a microplate reader (Bio-Rad) and the results from the 6 hr mark were graphed (only the data for LPS+DMSO and LPS+PIMAP39 are presented here due to the similarity between LPS+DMSO and LPS+SCepetide). […]
(§2) To investigate how PIMAP39 mediates endotoxic shock, 3 month old, weight matched mice were treated with a lethal dose of LPS (12.5 ng LPS+1 mg D-Gal per gram body weight) followed immediately by a tail vein injection of PIMAP39 or controls. The treated mice were monitored for their behavior and mortality every hour. […]

TNF-α = assay: Plasma TNF-α by ELISA in the endotoxic shock assay; format: in vivo, mouse; conditions: 6 hr mark
Description: as §1, §2

[2] = test system: white blood cells within the liver sections; assay: Fluorescence microscopy detection of FITC-labeled PIMAP39 in mouse liver sections after tail vein injection; format: in vivo; conditions: 1 mg FITC-PIMAP39 by tail vein injection, one hour post injection, vs DMSO alone
Description: Macrophage samples: Cells (5×10^3) from 3 month old mice were seeded over cover slips (22 mm) in 6-well plates and were treated with 500 ng/ml FITC-PIMAP39 (B) or DMSO alone (A) and continuously incubated overnight. Cover slips were removed and cells were stained with 50 nM LysoTracker Red DND-99 (Invitrogen) for 1.5 hours and then air-dried. Tissue section samples: Mice were treated with 1 mg of FITC-PIMAP39 (E, F) or DMSO alone as control (C, D), by tail vein injection as described. One hour post injection mice were sacrificed and their livers were harvested. Harvested livers were set in uniform orientations in molds using Histoprep™ (Fisher). 10 μm thick cross-sections were cut and transferred with a paintbrush to glass slides followed by H & E staining. Cross-sections were made at −24° C. using an HM505E cryostat (Microm). Both the treated cells and sections above were exposed to visible light for structural identification (C & E) and fluorescent light for signal location (A, B, D & F) by Olympus BX40 microscope at 200× (A & B) or 1000× (C-F) magnification and photographed. The FITC-PIMAP39-induced fluorescent signal in some macrophages (B) or in the leukocytes within the veins of the liver (F) was observed. The images were taken with a MicroFIRE camera under exposure time (1 second for fluorescent light, 30 second for visible light). […]

presence / uptake of peptide in white blood cells in vivo (liver sections, fluorescent signal) [2] | Sequence | time at which deaths occurred [1] | time at which most mice became sick [1] | plasma TNF-α compared with LPS+DMSO (TNF-α)
 | VTGKLTDTEVVTAYVIDEPKYVCRVTGK [SCpep] | 6 to 8 h | 3 to 4 h | similarity
cell permeable; also recorded: taken up | KYGATTVVRVCEVTYDKTPLEKDGITVV [PIMAP39] |  |  | 
